Consider 3 molecules from patent publication US10400285B2, “DDX43 as a biomarker of resistance to MEK1/2 inhibitors” (Memorial Sloan-Kettering Cancer Center, priority 2013, dated 2019).

SMILES strings stand for the structures.

The subject of this assay is Res-Omm1.3 and Res-Mel270 cells. Kind of assay: Cell viability assay (CCK8), MEKi-resistant cells. The format is cell-based. On the procedure:
Cells were plated in 96-well plates, and treated with the indicated concentrations of drugs. […] Cell viability is expressed as a percentage of untreated cells.
To explore mechanisms of drug resistance, MEKi-resistant GNAQ-mutant cell lines were generated by exposing the cells to increasing concentrations of selumetinib for at least four weeks and routinely grown in 1 μM selumetinib, without clonal selection. After continuous exposure, the cell lines Res-Omm1.3 and Res-Mel270 became resistant to selumetinib compared to their parental cells Omm1.3 and Mel270 (FIG. 2A, B).

In the case of `Cn1cnc2c(F)c(Nc3ccc(Br)cc3Cl)c(C(=O)NOCCO)cc21` [selumetinib], the “IC50 of resistant cells relative to their sensitive counterparts” value (Res-Omm1.3 and Res-Mel270 vs parental Omm1.3 and Mel270, cell viability) stood at 10 fold. Consider `NC1(c2ccc(-c3nc4ccn5c(=O)[nH]nc5c4cc3-c3ccccc3)cc2)CCC1` [MK2206], for which the “sensitivity to AKTi when combined with MEKi” value (MK2206 with selumetinib, FIG. 6) is “sustained”. Moreover, under “increasing concentrations of MK2206, FIG. 6”, the “cell viability with AKTi compared to the parental lines” value is recorded as “Decreased viability”. For `O=C(NOC[C@H](O)CO)c1ccc(F)c(F)c1Nc1ccc(I)cc1F` [PD0325901], the “cell viability: resistance to MEK inhibitor compared to parental cells” value (increasing doses, 4 days, FIG. 2A, B and FIG. 7) is given as “cross resistance”.
